Measurements as given in patent US20150140015A1, “METHODS AND PHARMACEUTICAL COMPOSITIONS FOR THE TREATMENT OF PANCREATIC CANCER” (INSERM (Institut National de la Sante et de la Recherche …, priority 2013, published 2015).

Tests used:
AsPC-1 cells [1] = experiment: Quantification of apoptotic cells by annexin V-PE labeling in AsPC-1 cells; assay type: cell-based, human; details: 1 μM orexin-A, 48 hr
Description: (§1) FIG. 4A-C. Effect of orexin-A on apoptosis in AsPC-1 cells. A, SHP-2 protein tyrosine phosphatase inhibitor, NSC-87877, blocks orexin-induced apoptosis. AsPC-1 cells were challenged with (black bars) or without (white bars) 1 μM orexin-A for 48 hr in the absence or presence of NSC-87877 (50 μM). Apoptosis was measured by determination of annexin V-PE binding, and results are expressed as the percentage of apoptotic cells; B and C: Indirect immunostaining of activated caspase-3 in AsPC-1 cells in the presence or absence of orexin-A. Paraformaldehyde-fixed AsPC-1 cells were challenged with (orexin-A) or without (basal) 1 μM orexin-A for 48 hr. Activated caspase-3 immunostaining is shown in B and scored in C. Results are means±SE of three separate experiments. ***p<0.001; ns, non-significant.
(§2) AsPC-1, SW 1990, HPAF-II and HPAF-II/hOX1R cells (seeded at 5×10^4 cells/well) were grown in 24-well plates for 24 hr under the culture conditions described above. The culture medium was then replaced every 24 hr with fresh medium with or without orexin-A (GL Biochemicals) at a concentration of 1 μM in the presence or absence of the SHP-2 inhibitor, NSC-87877 (50 μM) (Calbiochem, VWR International SAS, France). At the end of the treatment (48 hr), apoptotic cells were determined using the Guava Nexin™ kit (Guava Technologies, Hayward, Calif., USA), which discriminates between apoptotic and non-apoptotic cells (Rouet-Benzineb P, Rouyer-Fessard C, Jarry A, et al. Orexins Acting at Native OX1 Receptor in Colon Cancer and Neuroblastoma Cells or at Recombinant OX1 Receptor Suppress Cell Growth by Inducing Apoptosis. J Biol Chem 2004; 279:45875-86), analyzed with the Guava Personal Cell Analysis (PCA) system (Merck-Millipore, Guyancourt, France), and counted (2,000 events) (Voisin et al, 2008, as above). Results are expressed as the percentage of apoptotic phycoerythrin-labelled Annexin V (Annexin V-PE) positive cells and are the means of 3 independent analyses.

parental HPAF-II cells [2] = experiment: Quantification of apoptotic cells by annexin V-PE labeling in parental HPAF-II cells; assay type: cell-based, human; details: 1 μM orexin-A
Description: (§3) FIGS. 5A and B. Effect of orexin-A on apoptosis in OX1R expressing recombinant OX1R/HPAF-II cells. A, Parental HPAF-II and recombinant OX1R/HPAF-II cells were challenged with (black bars) or without (white bars) 1 μM orexin-A for 48 hr in the absence or presence of the SHP-2 protein tyrosine phosphatase inhibitor, NSC-87877 (50 μM). Apoptosis was measured by determination of annexin V-PE binding. Results are expressed as the percentage of apoptotic cells, and are the means±SE of three separate experiments. ***p<0.001; ns, non-significant; B, paraformaldehyde-fixed HPAF-II cells and recombinant OX1R/HPAF-II cells were challenged with or without (Basal) 1 μM orexin-A for 48 hr. Indirect immunostaining of activated caspase-3 in parental HPAF-II cells (left panels) and recombinant OX1R/HPAF-II cells (right panels) in the presence (bottom panels) or tabsence (top panels) of orexin-A is illustrated in B.
as §2

AsPC-1 cells [3] = experiment: Activated caspase-3 immunostaining in AsPC-1 cells; assay type: cell-based, human; details: 1 μM orexin-A, 48 hr
Description: as §1, with “Results are means±SE of three separate experiments. ***p<0.001; ns, non-significant.” left out
(§4) After dewaxing, rehydrating tumor paraffin sections, and antigen retrieval by pretreatment with high temperature at pH 9, immunohistochemical procedures were carried out using an automated immunohistochemical stainer according to the manufacturer's guidelines (Bond-Max slide stainer, Menarini, Leica Microsystems). […] OX1R immunostaining was evaluated by two investigators (TV and AC) by calculating a score (0-300) obtained by multiplying the intensity (negative, 0; weak, 1; moderate, 2; and strong, 3) by the percentage of stained cells. The pattern of expression (cytoplasmic, membranous, and nuclear) was also recorded, and a mean score was calculated for each tumor. […]

parental HPAF-II cells [4] = experiment: Activated caspase-3 immunostaining in parental HPAF-II cells; assay type: cell-based, human; details: 1 μM orexin-A, 48 hr
Description: as §3, with “Indirect immunostaining of activated caspase-3 in parental HPAF-II cells (left panels) and recombinant OX1R/HPAF-II cells (right panels) in the presence (bottom panels) or tabsence (top panels) of orexin-A is illustrated in B.” left out
as §4

[5] = system: recombinant OX1R/HPAF-II cells; experiment: Activated caspase-3 immunostaining in recombinant OX1R/HPAF-II cells; assay type: cell-based, human; details: 1 μM orexin-A, 48 hr
Description: as §3, with “Indirect immunostaining of activated caspase-3 in parental HPAF-II cells (left panels) and recombinant OX1R/HPAF-II cells (right panels) in the presence (bottom panels) or tabsence (top panels) of orexin-A is illustrated in B.” left out
as §4

[6] = system: AsPC-1 cells xenografted in nude mice; experiment: Tumorigenicity assay: AsPC-1 cells xenografted in nude mice; assay type: in vivo

## orexin-A: 33 amino acid hypothalamic neuropeptide, OX1R agonist, SEQ ID NO:2; peptide from GL Biochemicals
AsPC-1 cells [1]
  percentage of apoptotic cells (annexin V-PE): 24.3%±1.4
Parental HPAF-II cells [2]; 48 hr, untransfected parental HPAF-II cells
  induction of apoptosis: did not induce apoptosis
Parental HPAF-II cells [2]; untransfected cells
  annexin-V positive apoptotic cells: 2.1%±0.4
AsPC-1 cells [3]
  cleavage and activation of caspase 3: induced the cleavage and activation of caspase 3
Parental HPAF-II cells [4]
  caspase-3 activation: no activation
[5]
  caspase-3 activation: strong caspase-3 activation
[6]; 2 or 3 injections/week (data not shown)
  tumor volume decrease under other injection frequencies: same results
[6]; once or twice weekly therapy (data not shown)
  reduction of tumor volume versus daily injections: equivalent or even more effective
